Assay results from patent publication US12195482B1 (Arcus Biosciences, Inc., priority 2022, dated 2025).

Experiments:
p-AXL = molecular target: T1, p-AXL (Homo sapiens, UniProt P30530); assay: Axl phosphorylation inhibition ELISA in HEK293T cells transfected with NanoLuc-tagged AXL; type: cell-based; conditions: 1 h compound incubation, media (OptiMEM)
T1 construct: expressed in transfected cells; host or cells: HEK293T
T1 sequence (P30530 26-894): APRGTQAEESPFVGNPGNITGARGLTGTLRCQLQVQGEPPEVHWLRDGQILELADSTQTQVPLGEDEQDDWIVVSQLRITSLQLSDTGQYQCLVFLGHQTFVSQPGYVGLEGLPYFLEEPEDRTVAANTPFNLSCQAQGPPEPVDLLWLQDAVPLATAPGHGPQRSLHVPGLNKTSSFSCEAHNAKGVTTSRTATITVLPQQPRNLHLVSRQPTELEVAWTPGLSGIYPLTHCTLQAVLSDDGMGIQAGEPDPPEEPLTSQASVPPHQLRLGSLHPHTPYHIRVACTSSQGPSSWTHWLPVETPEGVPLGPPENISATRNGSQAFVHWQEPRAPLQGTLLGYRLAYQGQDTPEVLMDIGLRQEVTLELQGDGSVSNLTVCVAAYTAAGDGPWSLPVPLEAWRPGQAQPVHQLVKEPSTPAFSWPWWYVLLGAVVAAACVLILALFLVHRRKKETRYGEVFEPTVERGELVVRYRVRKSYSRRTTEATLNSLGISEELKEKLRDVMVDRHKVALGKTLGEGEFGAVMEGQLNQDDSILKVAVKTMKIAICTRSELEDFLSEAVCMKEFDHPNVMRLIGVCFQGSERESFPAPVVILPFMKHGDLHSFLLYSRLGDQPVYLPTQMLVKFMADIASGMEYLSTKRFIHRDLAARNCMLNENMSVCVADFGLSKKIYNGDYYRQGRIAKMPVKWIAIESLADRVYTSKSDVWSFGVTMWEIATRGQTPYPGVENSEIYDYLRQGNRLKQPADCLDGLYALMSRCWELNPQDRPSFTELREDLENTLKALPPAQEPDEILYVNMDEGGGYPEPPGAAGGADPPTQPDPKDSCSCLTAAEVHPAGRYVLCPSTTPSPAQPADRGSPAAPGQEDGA
How it was run: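 Phospho-AXL detected by luminescence of NanoLuc tag after capture of cell lysate on biotinylated anti-phospho-tyrosine mAb plates (2 h). Lysates came from transiently transfected HEK293T cells treated 1 h at 37° C with serial 2-fold dilutions (22 points). IC50 by standard 4-parameter logistic fitting.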

Axl = molecular target: T2, Axl (Homo sapiens, UniProt P30530); assay: Biochemical potency, HTRF KinEASE-TK kinase assay; parameters: purchased Invitrogen; conditions: 5 nM AXL, 700 μM ATP
T2 sequence (P30530 26-894): T1 sequence (P30530 26-894)
How it was run: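 Phosphorylation of a biotinylated tyrosine-kinase peptide (800 nM) by AXL (5 nM) or TYRO3/MER (1 nM) is measured at 700 µM ATP after 2 h at room temperature, following 1 h enzyme–compound preincubation. Signal is the time-resolved FRET ratio, converted to percent activity.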

Structure (SMILES)	IC50 (p-AXL)	IC50 (Axl)
Cc1ccc(C)c(-c2ccc(-c3c[nH]c4ncc(-c5ccc6c(c5)CC[C@@H](N5C7COCC5C7)CC6)cc34)cc2)n1 [Example 137, 6-[(7S)-2-{3-[4-(3,6-Dimethylpyridin-2-yl)phenyl]-1H-pyrrolo[2,3-b]pyridin-5-yl}-6,7,8,9-tetrahydro-5H-benzo[7]annulen-7-yl]-3-oxa-6-azabicyclo[3.1.1]heptane]	< 0.1 µM	< 0.1 µM
Cc1ccc(C)c(-c2ccc(-c3n[nH]c4ncc(-c5ccc6c(c5)CC[C@@H](N5C7COCC5C7)CC6)cc34)cc2C)n1 [Example 185, 6-[(7S)-2-{3-[4-(3,6-Dimethylpyridin-2-yl)-3-methylphenyl]-1H-pyrazolo[3,4-b]pyridin-5-yl}-6,7,8,9-tetrahydro-5H-benzo[7]annulen-7-yl]-3-oxa-6-azabicyclo[3.1.1]heptane]	0.1 to 1 µM	< 0.1 µM
Cc1cccnc1-c1ccc(-c2c[nH]c3ncc(-c4ccc5c(c4)CC[C@@H](N4C6COCC4C6)CC5)cc23)c(F)c1 [Example 153, 6-[(7S)-2-{3-[2-Fluoro-4-(3-methylpyridin-2-yl)phenyl]-1H-pyrrolo[2,3-b]pyridin-5-yl}-6,7,8,9-tetrahydro-5H-benzo[7]annulen-7-yl]-3-oxa-6-azabicyclo[3.1.1]heptane]	< 0.1 µM	< 0.1 µM
Cn1ncnc1-c1ccc(-c2n[nH]c3ncc(-c4ccc5c(c4)CC[C@@H](N[C@H]4CCCOC4)CC5)cc23)cc1 [Example 134]	< 0.1 µM	< 0.1 µM
Cc1ccc(C)c(-c2ccc(-c3c[nH]c4ncc(-c5ccc6c(c5)CC[C@@](C)(N5CCC[C@H]5C)CC6)cc34)cc2)n1 [Example 147, 3,6-Dimethyl-2-(4-{5-[(7S)-7-methyl-7-[(2R)-2-methylpyrrolidin-1-yl]-6,7,8,9-tetrahydro-5H-benzo[7]annulen-2-yl]-1H-pyrrolo[2,3-b]pyridin-3-yl}phenyl)pyridine]	< 0.1 µM	< 0.1 µM
Cc1cc(=O)n(C)nc1-c1ccc(-c2c[nH]c3ncc(-c4ccc5c(c4)CC[C@@H](N4C6COCC4C6)CC5)cc23)cc1 [Example 20, 2,5-Dimethyl-6-(4-{5-[(7S)-7-{3-oxa-6-azabicyclo[3.1.1]heptan-6-yl}-6,7,8,9-tetrahydro-5H-benzo[7]annulen-2-yl]-1H-pyrrolo[2,3-b]pyridin-3-yl}phenyl)-2,3-dihydropyridazin-3-one]	< 0.1 µM	< 0.1 µM

Results, then the compound that gave them:

IC50 (p-AXL)	IC50 (Axl)	Structure (SMILES)
0.1 to 1 µM	< 0.1 µM	Cc1cnc(-c2ccc(-c3n[nH]c4ncc(-c5ccc6c(c5)CC[C@@H](N5CCCC5)CC6)cc34)cc2)c(C)n1 [Example 189, 3,5-Dimethyl-2-(4-{5-[(7S)-7-(pyrrolidin-1-yl)-6,7,8,9-tetrahydro-5H-benzo[7]annulen-2-yl]-1H-pyrazolo[3,4-b]pyridin-3-yl}phenyl)pyrazine]
< 0.1 µM	< 0.1 µM	Cc1cnc(-c2ccc(-c3n[nH]c4ncc(-c5ccc6c(c5)CC[C@@](C)(N5CCC[C@H]5C)CC6)cc34)cc2)c(C)n1 [Example 188, 3,5-Dimethyl-2-(4-{5-[(7S)-7-methyl-7-[(2R)-2-methylpyrrolidin-1-yl]-6,7,8,9-tetrahydro-5H-benzo[7]annulen-2-yl]-1H-pyrazolo[3,4-b]pyridin-3-yl}phenyl)pyrazine]
0.1 to 1 µM	< 0.1 µM	Cc1ccc(N2CCCC2=O)c(-c2ccc(-c3n[nH]c4ncc(-c5ccc6c(c5)CC[C@@H](N5C7COCC5C7)CC6)cc34)cc2)n1 [Example 198, 1-[6-Methyl-2-(4-{5-[(7S)-7-{3-oxa-6-azabicyclo[3.1.1]heptan-6-yl}-6,7,8,9-tetrahydro-5H-benzo[7]annulen-2-yl]-1H-pyrazolo[3,4-b]pyridin-3-yl}phenyl)pyridin-3-yl]pyrrolidin-2-one]
